Reference: patent US20240101592A1, “COMPOSITIONS AND METHODS FOR TREATING CNS DISORDERS” (Sage Therapeutics, Inc., priority 2020, published 2024)

Biological target: GABAA receptor ([35S]-TBPS binding, rat brain cortical membranes)
Assay: Steroid inhibition of [35S]-TBPS binding
Conditions: 3 nM [35S]-TBPS, in the presence of 5 mM GABA, 90 min at room temp
Method: Steroid Inhibition of TBPS Binding
[^35S]-t-Butylbicyclophosphorothionate (TBPS) binding assays using rat brain cortical membranes in the presence of 5 mM GABA has been described (Gee et al, J. Pharmacol. Exp. Ther. 1987, 241, 346-353; Hawkinson et al, Mol. Pharmacol. 1994, 46, 977-985; Lewin, A. H et al., Mol. Pharmacol. 1989, 35, 189-194).
Briefly, cortices are rapidly removed following decapitation of carbon dioxide-anesthetized Sprague-Dawley rats (200-250 g). The cortices are homogenized in 10 volumes of ice-cold 0.32 M sucrose using a glass/teflon homogenizer and centrifuged at 1500×g for 10 min at 4° C. The resultant supernatants are centrifuged at 10,000×g for 20 min at 4° C. to obtain the P2 pellets. The P2 pellets are resuspended in 200 mM NaCl/50 mM Na—K phosphate pH 7.4 buffer and centrifuged at 10,000×g for 10 min at 4° C. This washing procedure is repeated twice and the pellets are resuspended in 10 volumes of buffer. Aliquots ([…]) of the membrane suspensions are incubated with 3 nM [^35S]-TBPS and […] aliquots of test drug dissolved in dimethyl sulfoxide (DMSO) (final 0.5%) in the presence of 5 mM GABA. The incubation is brought to a final volume of 1.0 mL with buffer. Nonspecific binding is determined in the presence of […] and ranged from 15 to 25%. Following a 90 min incubation at room temp, the assays are terminated by filtration through glass fiber filters (Schleicher and Schuell No. 32) using a cell harvester (Brandel) and rinsed three times with ice-cold buffer. Filter bound radioactivity is measured by liquid scintillation spectrometry. Non-linear curve fitting of the overall data for each drug averaged for each concentration is done using Prism (GraphPad). […] The concentration of test compound producing 50% inhibition (IC50) of specific binding and the maximal extent of inhibition (Imax) are determined for the individual experiments with the same model used for the overall data and then the means±SEM.s of the individual experiments are calculated.
Various compounds are or can be screened to determine their potential as modulators of [^35S]-TBPS binding in vitro. These assays are or can be performed in accordance with the above.

SMILES | IC50
COC[C@@]1(O)CC[C@H]2[C@@H](CC[C@@H]3[C@@H]2CC[C@@]2(C)[C@H]3[C@@H]3C[C@@H]3[C@@H]2[C@H](C)Cn2nnc(C)n2)C1 [Compound No. 17, (2R,4aS,4bR,6aS,7R,7aS,8aR,8bR,8cR,10aS)-2-(methoxymethyl)-6a-methyl-7-((S)-1-(5-methyl-2H-tetrazol-2-yl)propan-2-yl)octadecahydrocyclopropa[4,5]cyclopenta[1,2-a]phenanthren-2-ol] | 100 to 1000 nM
C[C@@]1(O)CC[C@H]2[C@H](CC[C@@H]3[C@@H]2CC[C@]2(C)[C@H](C(=O)Cn4cc(C#N)cn4)[C@H]4C[C@H]4C[C@@H]32)C1 [Compound No. 7, 1-(2-((2R,4aS,4bR,6aS,7R,7aS,8aS,9aS,9bR,11aR)-2-hydroxy-2,6a-dimethyloctadecahydro-1H-cyclopropa[b]chrysen-7-yl)-2-oxoethyl)-1H-pyrazole-4-carbonitrile] | > 1000 nM
CC(=O)[C@H]1[C@H]2C[C@H]2[C@H]2[C@@H]3CC[C@@H]4C[C@](C)(O)CC[C@@H]4[C@H]3CC[C@@]21C [Compound No. 9, 1-((2R,4aS,4bR,6aS,7S,7aS,8aR,8bR,8cR,10aR)-2-hydroxy-2,6a-dimethyloctadecahydrocyclopropa[4,5]cyclopenta[1,2-a]phenanthren-7-yl)ethanone] | < 100 nM
C[C@@]1(O)CC[C@H]2[C@H](CC[C@@H]3[C@@H]2CC[C@]2(C)[C@@H]([C@@H]4C[C@H]4Cn4cc(C#N)cn4)CC[C@@H]32)C1 [Compound No. 25, 1-(((1R,2S)-2-((3R,5R,8R,9R,10S,13S,14S,17R)-3-hydroxy-3,13-dimethylhexadecahydro-1H-cyclopenta[a]phenanthren-17-yl)cyclopropyl)methyl)-1H-pyrazole-4-carbonitrile] | < 100 nM
C[C@@]1(O)CC[C@H]2[C@H](CC[C@@H]3[C@@H]2CC[C@@]2(C)[C@H]3[C@@H]3C[C@@H]3C[C@@H]2C(=O)Cn2cc(C#N)cn2)C1 [Compound No. 8, 1-(2-((1S,2aR,3aR,3bS,3cR,5aR,7R,9aS,9bR,11aS)-7-hydroxy-7,11a-dimethyloctadecahydro-1H-cyclopropa[c]chrysen-1-yl)-2-oxoethyl)-1H-pyrazole-4-carbonitrile] | < 100 nM
C[C@@]1(O)CC[C@H]2[C@H](CC[C@@H]3[C@@H]2CC[C@@]2(C)[C@H]3C[C@@H]3C[C@@H]3[C@@H]2C(=O)Cn2cc(C#N)cn2)C1 [Compound No. 6, 1-(2-((2R,4aS,4bR,6aS,7S,7aS,8aS,9aS,9bR,11aR)-2-hydroxy-2,6a-dimethyloctadecahydro-1H-cyclopropa[b]chrysen-7-yl)-2-oxoethyl)-1H-pyrazole-4-carbonitrile] | < 100 nM
COC[C@@]1(O)CC[C@H]2[C@@H](CC[C@@H]3[C@@H]2CC[C@@]2(C)[C@H]3[C@@H]3C[C@@H]3[C@@H]2C(C)=O)C1 [Compound No. 16, 1-((2R,4aS,4bR,6aS,7S,7aS,8aR,8bR,8cR,10aS)-2-hydroxy-2-(methoxymethyl)-6a-methyloctadecahydrocyclopropa[4,5]cyclopenta[1,2-a]phenanthren-7-yl)ethanone] | < 100 nM
CCC[C@@]1(O)CC[C@H]2C(CC[C@@H]3[C@@H]2CC[C@@]2(C)[C@H]3[C@@H]3C[C@@H]3[C@@H]2C(=O)Nc2ccc(C#N)cn2)C1 (stereo in doubt) [Compound No. 15, (2R,4aS,4bR,6aS,7S,7aS,8aR,8bR,8cR,10aR)-N-(5-cyanopyridin-2-yl)-2-hydroxy-6a-methyl-2-propyloctadecahydrocyclopropa[4,5]cyclopenta[1,2-a]phenanthrene-7-carboxamide] | < 100 nM
COC[C@@]1(O)CC[C@H]2[C@@H](CC[C@@H]3[C@@H]2CC[C@@]2(C)[C@H]3[C@@H]3C[C@@H]3[C@@H]2[C@@H](C)Cn2nnc(C)n2)C1 [Compound No. 18, (2R,4aS,4bR,6aS,7R,7aS,8aR,8bR,8cR,10aS)-2-(methoxymethyl)-6a-methyl-7-((R)-1-(5-methyl-2H-tetrazol-2-yl)propan-2-yl)octadecahydrocyclopropa[4,5]cyclopenta[1,2-a]phenanthren-2-ol] | 100 to 1000 nM
C[C@@]1(O)CC[C@@]2(C)[C@@H](CC[C@@H]3[C@@H]2CC[C@@]24C[C@@]32CC[C@@H]4C(=O)Cn2cc(C#N)cn2)C1 [Compound No. 23, 1-(2-((3R,5S,8R,9S,10S,13S,14S,17S)-3-hydroxy-3,10-dimethyltetradecahydro-1H-13,14-methanocyclopenta[a]phenanthren-17-yl)-2-oxoethyl)-1H-pyrazole-4-carbonitrile] | < 100 nM
C[C@@]1(O)CC[C@H]2[C@H](CC[C@@H]3[C@@H]2CC[C@@]2(C)[C@H]3C[C@H]3C[C@H]3[C@@H]2C(=O)Cn2cc(C#N)cn2)C1 [Compound No. 1, 1-(2-((2R,4aS,4bR,6aS,7S,7aR,8aR,9aS,9bR,11aR)-2-hydroxy-2,6α-dimethyloctadecahydro-1H-cyclopropa[b]chrysen-7-yl)-2-oxoethyl)-1H-pyrazole-4-carbonitrile] | < 100 nM
C[C@H](Cn1cc(C#N)cn1)[C@H]1[C@@H]2C[C@@H]2C[C@H]2[C@@H]3CC[C@@H]4C[C@](C)(O)CC[C@@H]4[C@H]3CC[C@]12C [Compound No. 5, 1-((S)-2-((2R,4aS,4bR,6aS,7R,7aR,8aR,9aS,9bR,11aR)-2-hydroxy-2,6a-dimethyloctadecahydro-1H-cyclopropa[b]chrysen-7-yl)propyl)-1H-pyrazole-4-carbonitrile] | < 100 nM
CC(Cn1cc(C#N)cn1)[C@H]1[C@H]2C[C@H]2[C@H]2[C@@H]3CC[C@@H]4C[C@](C)(O)CC[C@@H]4[C@H]3CC[C@@]21C (single isomer, unassigned) [Compound No. 10] | < 100 nM
Cc1nnnn1C[C@H]1C[C@@H]1[C@H]1CC[C@H]2[C@@H]3CC[C@@H]4C[C@](C)(O)CC[C@@H]4[C@H]3CC[C@]12C [Compound No. 26, (3R,5R,8R,9R,10S,13S,14S,17R)-3,13-dimethyl-17-((1R,2S)-2-((5-methyl-1H-tetrazol-1-yl)methyl)cyclopropyl)hexadecahydro-1H-cyclopenta[a]phenanthren-3-ol] | < 100 nM
C[C@@H](Cn1cc(C#N)cn1)[C@H]1[C@@H]2C[C@@H]2C[C@H]2[C@@H]3CC[C@@H]4C[C@](C)(O)CC[C@@H]4[C@H]3CC[C@]12C [Compound No. 4, 1-((R)-2-((2R,4aS,4bR,6aS,7R,7aR,8aR,9aS,9bR,11aR)-2-hydroxy-2,6a-dimethyloctadecahydro-1H-cyclopropa[b]chrysen-7-yl)propyl)-1H-pyrazole-4-carbonitrile] | < 100 nM
C[C@@]1(O)CC[C@H]2[C@H](CC[C@@H]3[C@@H]2CC[C@@]2(C)[C@H]3[C@@H]3C[C@@H]3[C@@H]2[C@](C)(O)Cn2cc(C#N)cn2)C1 (single isomer, unassigned) [Compound No. 12] | < 100 nM
C[C@@]1(O)CC[C@H]2[C@H](CC[C@@H]3[C@@H]2CC[C@@]2(C)[C@H]3C[C@H]3C[C@H]3[C@@H]2[C@@](C)(O)Cn2cc(C#N)cn2)C1 [Compound No. 3] | < 100 nM
CC(Cn1cc(C#N)cn1)[C@H]1[C@H]2C[C@H]2[C@H]2[C@@H]3CC[C@@H]4C[C@](C)(O)CC[C@@H]4[C@H]3CC[C@@]21C (single isomer, unassigned) [Compound No. 11] | < 100 nM
CC(=O)[C@H]1CC[C@@]23C[C@@]12CC[C@H]1[C@H]3CC[C@H]2C[C@](C)(O)CC[C@@]21C [Compound No. 22, 1-((3R,5S,8R,9S,10S,13S,14S,17S)-3-hydroxy-3,10-dimethyltetradecahydro-1H-13,14-methanocyclopenta[a]phenanthren-17-yl)ethanone] | 100 to 1000 nM
Cc1nnn(C[C@@H]2C[C@H]2[C@H]2CC[C@H]3[C@@H]4CC[C@@H]5C[C@](C)(O)CC[C@@H]5[C@H]4CC[C@]23C)n1 [Compound No. 28, (3R,5R,8R,9R,10S,13S,14S,17R)-3,13-dimethyl-17-((1S,2R)-2-((5-methyl-2H-tetrazol-2-yl)methyl)cyclopropyl)hexadecahydro-1H-cyclopenta[a]phenanthren-3-ol] | < 100 nM
